Experimental data taken from US5688938A, “Calcium receptor-active molecules” (priority 1995, dated 1997).
“Also recorded” adds a separate entry of the source.

Experiments:
[1] = biological target: T1, parathyroid cell calcium receptor (Bos taurus, UniProt P35384); experiment: cell-based; type: cell-based
T1 sequence (P35384 21-1085 limits assumed): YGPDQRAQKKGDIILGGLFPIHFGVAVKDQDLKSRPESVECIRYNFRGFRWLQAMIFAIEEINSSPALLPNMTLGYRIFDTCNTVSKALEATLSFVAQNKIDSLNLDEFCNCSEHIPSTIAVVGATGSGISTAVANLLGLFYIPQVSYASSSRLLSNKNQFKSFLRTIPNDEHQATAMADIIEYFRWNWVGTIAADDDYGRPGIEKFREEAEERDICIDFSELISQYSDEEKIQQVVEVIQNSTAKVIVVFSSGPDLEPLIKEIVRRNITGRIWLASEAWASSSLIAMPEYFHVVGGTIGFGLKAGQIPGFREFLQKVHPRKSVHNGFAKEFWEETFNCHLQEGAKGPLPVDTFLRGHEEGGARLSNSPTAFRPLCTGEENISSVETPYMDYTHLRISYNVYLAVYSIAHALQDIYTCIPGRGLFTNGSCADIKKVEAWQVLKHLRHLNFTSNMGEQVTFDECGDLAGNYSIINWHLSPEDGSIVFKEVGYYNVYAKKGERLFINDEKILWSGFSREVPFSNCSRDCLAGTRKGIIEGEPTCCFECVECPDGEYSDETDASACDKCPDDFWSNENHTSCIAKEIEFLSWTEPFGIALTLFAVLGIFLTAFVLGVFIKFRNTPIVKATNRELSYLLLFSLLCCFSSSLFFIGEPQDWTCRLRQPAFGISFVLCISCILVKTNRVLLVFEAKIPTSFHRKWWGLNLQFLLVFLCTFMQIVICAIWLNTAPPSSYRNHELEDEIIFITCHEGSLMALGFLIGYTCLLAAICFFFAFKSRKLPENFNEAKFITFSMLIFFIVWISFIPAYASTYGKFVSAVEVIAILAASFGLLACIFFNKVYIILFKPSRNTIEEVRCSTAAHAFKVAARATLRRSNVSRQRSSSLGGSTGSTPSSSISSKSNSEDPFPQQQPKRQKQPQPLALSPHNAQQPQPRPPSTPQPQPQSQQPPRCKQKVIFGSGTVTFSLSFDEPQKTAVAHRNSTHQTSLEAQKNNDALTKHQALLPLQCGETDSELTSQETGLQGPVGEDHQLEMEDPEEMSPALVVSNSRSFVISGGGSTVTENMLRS

[2] = test system: parathyroid cell calcium receptor; experiment: Cl^- current in Xenopus oocytes injected with (bovine) parathyroid cell mRNA; type: cell-based; conditions: 30 μM
Protocol: Following incubation, an oocyte was placed into a 100-μl plastic chamber and superfused with MBS at a flow rate of 0.5 ml/min using a peristaltic pump. Test molecules or inorganic polycations were added by rapidly moving the tubing into different buffers. Recording and current passing electrodes were constructed from thin-wall capillary tubing pulled to a resistance of 1-3 Mohms and filled with 3M KCl. […] Currents were recorded directly onto a strip chart recorder.

[3] = biological target: T2, human parathyroid cell calcium receptor (Homo sapiens, UniProt P41180); experiment: Cl^- current in Xenopus oocytes expressing cloned human parathyroid calcium receptor; type: cell-based; conditions: pHuPCaR 5.2 and 4.0
T2 construct: cRNA injected in Xenopus oocytes
T2 sequence (P41180 20-1078 R990G/E1011Q): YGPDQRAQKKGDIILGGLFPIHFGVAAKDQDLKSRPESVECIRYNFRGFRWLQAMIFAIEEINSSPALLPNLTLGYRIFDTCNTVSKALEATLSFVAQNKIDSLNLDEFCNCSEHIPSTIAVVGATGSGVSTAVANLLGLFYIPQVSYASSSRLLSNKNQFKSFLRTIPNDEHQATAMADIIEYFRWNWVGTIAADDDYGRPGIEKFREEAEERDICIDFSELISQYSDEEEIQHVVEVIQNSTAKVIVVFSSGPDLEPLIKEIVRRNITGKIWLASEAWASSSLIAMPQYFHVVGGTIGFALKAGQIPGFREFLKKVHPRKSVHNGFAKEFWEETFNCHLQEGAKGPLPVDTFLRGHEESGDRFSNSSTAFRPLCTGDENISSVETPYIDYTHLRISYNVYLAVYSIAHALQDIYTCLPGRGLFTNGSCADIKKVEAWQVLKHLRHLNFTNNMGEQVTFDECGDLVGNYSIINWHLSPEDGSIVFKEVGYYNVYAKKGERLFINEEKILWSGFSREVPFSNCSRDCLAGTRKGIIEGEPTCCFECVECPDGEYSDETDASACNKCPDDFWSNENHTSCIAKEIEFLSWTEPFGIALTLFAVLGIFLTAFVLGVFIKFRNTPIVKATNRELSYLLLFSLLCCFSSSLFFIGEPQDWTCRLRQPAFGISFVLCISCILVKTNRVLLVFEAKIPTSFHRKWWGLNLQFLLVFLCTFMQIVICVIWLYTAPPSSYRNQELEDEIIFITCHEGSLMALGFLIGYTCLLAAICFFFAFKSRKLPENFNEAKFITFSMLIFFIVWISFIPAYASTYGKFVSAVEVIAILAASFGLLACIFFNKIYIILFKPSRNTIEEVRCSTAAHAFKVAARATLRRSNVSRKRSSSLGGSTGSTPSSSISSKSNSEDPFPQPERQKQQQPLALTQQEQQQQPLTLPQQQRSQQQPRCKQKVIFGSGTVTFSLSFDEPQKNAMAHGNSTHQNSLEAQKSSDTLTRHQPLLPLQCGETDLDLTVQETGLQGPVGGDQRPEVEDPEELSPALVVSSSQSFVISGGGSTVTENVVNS
Protocol: Representative cDNA inserts for both size classes were subcloned into the plasmid vector pBluescript SK. Linearization followed by in vitro transcription using T7 RNA polymerase produced cRNA transcripts. The cRNA transcripts were injected into Xenopus oocytes (150 ng/μl RNA; 50 nl/oocyte) for functional analysis. Following incubation periods of 2-4 days, the oocytes were assayed for the presence of functional calcium receptors. Both clone types gave rise to functional calcium receptors as assessed by the stimulation of calcium-activated chloride currents upon addition of appropriate calcium receptor agonists. […] Thus, both clones encode a functional, human parathyroid cell calcium receptor.
Xenopus oocytes were injected with pHuPCaR 5.2, the 5.2 Kb cDNA encoding a parathyroid cell calcium receptor derived from a human parathyroid cell adenoma. (See Example 27.) After two to three days, Cl^- currents were measured in the oocytes using a two-electrode voltage clamp.

[4] = test system: human parathyroid calcium receptor (HuPCaR 5.2); experiment: intracellular calcium in HEK293 cells transfected with HuPCaR 5.2; type: cell-based; conditions: Ca^2+ 10 mM, Mg^2+ 20 mM
Protocol: Cells obtained from the pool of hygromycin selected HEK293 cells transfected with Cep4B containing the HuPCaR 5.2 insert were plated on collagen coated Aklar squares which had been placed into individual wells of 12-well tissue culture plates. Two to six days later, medium was removed and the cells washed with balanced salt solution and 1 ml of buffer containing 1 μM fura2-AM, 1 mM CaCl2 and 0.1% BSA and […]. Measurements of fluorescence in response to calcium receptor agonists were performed at 37° C. in a spectrofluorimeter using excitation and emission wavelengths of 340 and 510 nm, respectively. For signal calibration, Fmax was determined after addition of ionomycin (4.0 μM) and the apparent Fmin was determined by addition of 0.3M EGTA, 2.5M Tris-HCl; pH 10.

[5] = serum/blood calcium, PTH, albumin and phosphate in rats, intraperitoneal; type: in vivo, rat; conditions: 10 mg/kg i.p., 1 hour, normal diet
Protocol: Compounds shown to activate the bovine parathyroid cell calcium receptor in vitro were tested for hypocalcemic activity in vivo. […] […] […] Serum total calcium, albumin and phosphate were measured by techniques well known in the art.

[6] = serum ionized Ca^2+ in parathyroidectomized rats; type: in vivo, rat; conditions: 10 mg/kg i.p., 6 hours
Source text: To determine the primary target tissue upon which NPS R-467 acts to cause a hypocalcemic response, the parathyroid glands in rats were surgically removed. Animals receiving a total parathyroidectomy become hypocalcemic and are largely dependent upon dietary calcium to maintain serum Ca^2+ homeostasis.

[7] = serum/plasma Ca^2+, PTH and calcitonin in rats, oral; type: in vivo; conditions: rat, single oral dose, 3 hours
Source text: Rats (male, Sprague-Dawley, 250-300 g) were fed standard rat chow and fasted overnight prior to the experiment. NPS R-467 was suspended in corn oil and administered as a single oral dose through a gavage needle. Three hours later a sample of blood was taken from the tail vein and assessed for ionized Ca^2+ levels.

COc1cccc([C@@H](C)NCCCc2ccccc2)c1 [NPS R-467, (R)-(+)-N-(3-phenylpropyl)-α-methyl-3-methoxybenzylamine]
[Ca^2+]i response in presence of 0.5 mM extracellular Ca^2+ [1]: rapid and transient increase in [Ca^2+ ]i
[Ca^2+]i response in Ca^2+-free buffer after 10 μM neomycin ([1]; 30 μM NPS R-467): transient increase in [Ca^2+ ]i
[Ca^2+]i response in Ca^2+-free buffer after 100 μM neomycin ([1]; 30 μM NPS R-467): did not cause an increase in [Ca^2+ ]i
[Ca^2+]i response in Ca^2+-free buffer ([1]; no extracellular Ca^2+, NPS R-467 30 μM): abolished; also recorded: no increase in [Ca^2+ ]i
Cl^- current in oocytes [2]: rapid increase
activation of oocyte-expressed human receptor [3]: activated the oocyte-expressed receptor at about the same concentrations
increase in intracellular calcium [4]: Robust increases in intracellular calcium
decrease in serum ionized Ca^2+ from control level [5]: 22%
change in serum ionized Ca^2+ [6]: did not cause any change
reduction in serum ionized Ca^2+ [7]: dose-dependent reduction in serum levels of ionized Ca^2+
